Experiments:
OPM-2 cells [1] = assay: OPM-2 multiple myeloma xenograft model; assay type: in vivo, Mice; conditions: OPM-2 xenograft, Compound (1A) 25 mg/kg, Compound (B) 30 mg/kg, Bortezomib 0.5 mg/kg (text: 100 and 60 mg/kg p.o. qd×21, IP BIW)
Method: Mice were inoculated with OPM-2 cells subcutaneously on the right flank with the single cell suspension of 95% viable tumor cells (1×10^7) in 100 μL IMDM Matrigel mixture (1:1 ratio) without serum for the tumor development. The treatment was started when the mean tumor size reached approximately 200 mm^3, with individual tumor size ranging from 185-225 mm^3. Animals were randomly distributed into treatment groups of 10 animals each and dosed with vehicle and indicated compounds at indicated dosage and frequency shown in FIG. 6 and Table 5. In FIG. 6, the bottom line is Compound (1A) 100 mg/kg p.o. qd×21+Compound (B) 60 mg/kg p.o. pd×21+Bortezomib 0.5 mg/kg IP BIW (twice a week)×3, the second from the bottom line is Compound (1A)+Compound (B), the third from the bottom line is Compound (B)+Bortezomib, the fourth from the bottom line is Compound (B), the top line is Vehicle, the second from the top is Bortezomib, the third from the top line (indicted with squares) is Compound (1A) and the fourth from the top line is Compound (1A)+Bortezomib. Tumor volumes were evaluated twice per week to calculate tumor volume over time, and mice were weighed twice per week as a surrogate for signs of toxicity. Tumor growth inhibition (TGI) was calculated using the following equation TGI=(1−(Td−T0)/(Cd−C0))×100%. Td and Cd are the mean tumor volumes of the treated and control animals, and T0 and C0 are the mean tumor volumes of the treated and control animals at the start of the experiment. The tumor regression was defined as individual tumor volume (TV) decrease (terminal TV compared to initial TV). FIG. 6 and Table 5 illustrate that single agent, double agent, and triple treatment of Compound (1A) at 100 mg/kg, Compound (B) at 60 mg/kg and bortezomib at 0.5 mg/kg.

[2] = tested on: MDA-MB-436 cells (TNBC breast cancer cell line); assay: MDA-MB-436 triple negative breast cancer xenograft model; assay type: in vivo, Mice; conditions: MDA-MB-436 xenograft; Compound (1A) 200 mg/kg p.o. qd×40, Compound (B) 60 mg/kg p.o. qd×40; day 40
Method: Mice were inoculated with MDA-MB-436 cells (TNBC breast cancer cell line) subcutaneously on the right flank with the single cell suspension of 95% viable tumor cells (1×10^7) in 100 μL DMDM Matrigel mixture (1:1 ratio) without serum for the tumor development. The treatment was started when the mean tumor size reached approximately 210 mm^3 for each model (with individual tumor volumes between 180-240 mm^3). Animals were randomly distributed into treatment groups of 8 animals each and dosed with vehicle and indicated compounds at indicated dosage and frequency shown in FIG. 8 and Table 7. In FIG. 8, the top line (indicated with circles) is Vehicle control, the second from the top line (indicated with diamonds) is Compound (1A) (200 mg/kg 10 mL/kg p.o. qd×40) and the third line from the top (indicated with triangles) Compound (B) (60 mg/kg 10 mL/kg p.o. qd×40). The bottom line (indicated with circles) is Compound (1A) (200 mg/kg 10 mL/kg p.o. qd×40)+Compound (B) (60 mg/kg 10 mL/kg p.o. qd×40). Tumor volumes were evaluated twice per week to calculate tumor volume over time, and mice were weighed twice per week as a surrogate for signs of toxicity. Tumor growth inhibition (TGI) was calculated using the following equation TGI=(1−(Td−T0)/(Cd−C0))×100%. […]

HL-60 cells [3] = assay: HL-60 leukemia xenograft model; assay type: in vivo, Mice; conditions: HL-60 xenograft, Compound (1A) 25 mg/kg p.o. qd×21, Compound (B) 30 mg/kg p.o., azacitidine 1 mg/kg IP 5 days on 2 days off
Method: Mice were inoculated with HL-60 cells subcutaneously on the right flank with the single cell suspension of 95% viable tumor cells (1×10^7) in 100 μL IMDM Matrigel mixture (1:1 ratio) without serum for the tumor development. The treatment was started when the mean tumor size reached approximately 214 mm^3, with individual tumor size ranging from 185-245 mm^3. Animals were randomly distributed into treatment groups of 10 animals each and dosed with vehicle and indicated compounds at indicated dosage and frequency shown in FIG. 5 and Table 4. In FIG. 5, the bottom line is Compound (1A) 25 mg/kg p.o. qd×21+Compound (B) 30 mg/kg p.o. pd×21+azacitidine 1 mg/kg IP 5 days on 2 days off×3 cycle, the second from the bottom line is Compound (1A)+Compound (B), the third from the bottom line is Compound (1A)+azacytidine, the fourth from the bottom line is Compound (1A), the top line is Vehicle, the second from the top line is Compound (B), and the remaining two lines are azacytidine (indicated with triangles) and Compound (B)+azacytidine (indicated with diamonds). Tumor volumes were evaluated twice per week to calculate tumor volume over time, and mice were weighed twice per week as a surrogate for signs of toxicity. Tumor growth inhibition (TGI) was calculated using the following equation TGI=(1−(Td−T0)/(Cd−C0))×100%. Td and Cd are the mean tumor volumes of the treated and control animals, and T0 and C0 are the mean tumor volumes of the treated and control animals at the start of the experiment. The tumor regression was defined as individual tumor volume (TV) decrease (terminal TV compared to initial TV). FIG. 5 and Table 4 illustrate that single agent, double agent and triple treatment of Compound (1A) at 25 mg/kg, Compound (B) at 30 mg/kg and azacitidine at 1 mg/kg.

KMS-12-BM cells = assay: KMS-12-BM multiple myeloma xenograft model; assay type: in vivo, Mice; conditions: KMS-12-BM xenograft, Compound (1A) 25 mg/kg, Compound (B) 30 mg/kg, Dexamethasone 1 mg/kg (text: 100 and 60 mg/kg)
Method: Mice were inoculated with KMS-12-BM cells subcutaneously on the right flank with the single cell suspension of 95% viable tumor cells (1×10^7) in 100 μL IMDM Matrigel mixture (1:1 ratio) without serum for the tumor development. The treatment was started when the mean tumor size reached approximately 193 mm^3, with individual tumor size ranging from 185-220 mm^3. Animals were randomly distributed into treatment groups of 10 animals each and dosed with vehicle and indicated compounds at indicated dosage and frequency shown in FIG. 7 and Table 6. In FIG. 7, the bottom line is Compound (1A) 100 mg/kg p.o. qd×21+Compound (B) 60 mg/kg p.o. pd×21+Dexamethasone 1 mg/kg IP 5 days on 2 days off ×3, the second from the bottom line is Compound (1A)+Compound (B), the third from the bottom line is Compound (B)+Dexamethasone, the fourth from the bottom line (indicated with triangles) is Compound (B), the top line is Vehicle, the second from the top line is Dexamethasone, the third from the top line is Compound (1A) and the remaining line is Compound (1A)+Dexamethasone. Tumor volumes were evaluated twice per week to calculate tumor volume over time, and mice were weighed twice per week as a surrogate for signs of toxicity. Tumor growth inhibition (TGI) was calculated using the following equation TGI=(1−(Td−T0)/(Cd−C0))×100%. Td and Cd are the mean tumor volumes of the treated and control animals, and T0 and C0 are the mean tumor volumes of the treated and control animals at the start of the experiment. The tumor regression was defined as individual tumor volume (TV) decrease (terminal TV compared to initial TV). The percent tumor regression was calculated using the formula: (1−(Td/T0))×100%.

MOLM-13 cells = assay: CellTiter-Glo Luminescent Cell Viability Assay, MOLM-13; assay type: cell-based; conditions: Homo sapiens, 72 h, Compound (1A) 4 nM, Compound (B) 12 nM alone / 120 nM in combinations, Azacitidine 300 nM
Method: (§1) Cell proliferation was measured using the CellTiter-Glo® Luminescent Cell Viability Assay. The assay involved the addition of a single reagent (CellTiter-Glo® Reagent) directly to cells cultured in serum-supplemented medium. OPM-2, MOLM-13 and HL-60 cells were cultured according to ATCC recommendations and were seeded at 10,000 cells per well.
(§2) Compound (1 A), Compound (B) and Dexamethasone or Azacitidine were prepared as a DMSO stock solution (10 mM). For OPM-2 cell line, compounds were tested in triplicate using Dexamethasone; MOLM-13 and HL-60 cell lines compound were tested in triplicate using Azacitidine. Plates were incubated at 37° C., 5% CO2 for 72 h and then equilibrated at room temperature (RT) for approximately 30 min. An equal-volume amount of CellTiter-Glo® Reagent (100 μL) was added to each well. Plates were mixed for 2 min on an orbital shaker to induce cell lysis and then incubated at RT for 10 min to stabilize the luminescent signal. Luminescence (RLU (relative light unit)) was recorded using a SpectraMAX, M5e plate reader according to CellTiter-Glo protocol. Percent inhibition was calculated using the following formula: % inhibition=(RLU*100/(RLU of the cell background)).

OPM-2 cells [4] = assay: CellTiter-Glo Luminescent Cell Viability Assay, OPM-2; assay type: cell-based; conditions: Homo sapiens, 72 h, Compound (1A) 1500 nM, Compound (B) 300 nM, Dexamethasone 100 nM, alone or combined
Method: as §1, §2

HL-60 cells [5] = assay: CellTiter-Glo Luminescent Cell Viability Assay, HL-60; assay type: cell-based; conditions: Homo sapiens, 72 h, Compound (1A) 40 nM, Compound (B) 120 nM, Azacitidine 1500 nM, alone or combined
Method: as §1, §2

Row | SMILES | TGI % (DAY 17) (OPM-2 cells [1]) [%] | TGI % [2] [%] | TGI % (DAY 18) (HL-60 cells [3]) [%] | TGI % (DAY 14) (KMS-12-BM cells) [%] | also measured
1 | CC(C)C[C@H](NC(=O)[C@H](Cc1ccccc1)NC(=O)c1cnccn1)B(O)O [Bortezomib, reference compound] | 0 |  |  |  | 
2 | C=CCn1c(=O)c2cnc(Nc3ccc(N4CCN(C)CC4)cc3)nc2n1-c1ccc2c(n1)[C@@](O)(CC)CC2 [Compound (B)] | 33 | 55 | 6 | 74.5 | inhibition at 0.012 µM (MOLM-13 cells): 38.6%; inhibition at 0.3 µM (OPM-2 cells [4]): 4.3%; inhibition at 0.12 µM (HL-60 cells [5]): 5.6%
3 | CC1(C)CCC(CN2CCN(c3ccc(C(=O)NS(=O)(=O)c4ccc(NC[C@H]5CC[C@](C)(O)CC5)c([N+](=O)[O-])c4)c(Oc4cnc5[nH]ccc5c4)c3)CC2)=C(C23CC(C(F)F)(C2)C3)C1 [Compound (1A)] | 18 | 60 | 25 | 62.8 | inhibition at 0.004 µM (MOLM-13 cells): 35.4%; inhibition at 1.5 µM (OPM-2 cells [4]): 43%; inhibition at 0.04 µM (HL-60 cells [5]): 20.4%
4 | Nc1ncn([C@@H]2O[C@H](CO)[C@@H](O)[C@H]2O)c(=O)n1 [Azacitidine, reference compound] |  |  | 16 |  | inhibition at 0.3 µM (MOLM-13 cells): 10.7%; inhibition at 1.5 µM (HL-60 cells [5]): 2.3%
5 | C[C@@H]1C[C@H]2[C@@H]3CCC4=CC(=O)C=C[C@]4(C)[C@@]3(F)[C@@H](O)C[C@]2(C)[C@@]1(O)C(=O)CO [Dexamethasone, reference compound] |  |  |  | 22.5 | inhibition at 0.1 µM (OPM-2 cells [4]): 32%
